Where two headings read alike, the source gives them in different places. Each block holds one compound with its values, some of them ahead of it.
Key:
[1] = Description: Every hour, the entire content of the cathode solution was withdrawn and the chamber refilled with fresh buffer.
Three replicates were performed for each lithium concentration.

[2] = In vitro reverse iontophoretic extraction of glucose, mannitol and sodium (Example 6); type: in vitro ADME, pig
Description: To facilitate the analytical chemistry, the donor solutions were spiked with tritiated glucose and ^14C-labeled mannitol.
(§1) The cathodal (collection) chamber, which contacted the outer surface of the skin, contained a 25 mM Tris/TrisHCl buffer at pH 7.4.
The experimental design was identical to that in FIG. 11, with the exception that both tritiated glucose and ^14C-labeled mannitol were present in the ‘donor’ anode chamber.
During this period, the entire content of the cathode solution was withdrawn every 60 minutes and the chamber was refilled with fresh buffer.

[3] = In vitro reverse iontophoretic extraction of mannitol and sodium (Example 3, second experiment); details: pig; for Extracted (mannitol/Na^+) flux (×10^3) ratio / Mannitol flux: pH 7.4
Description: In a second experiment, performed under identical conditions to the first (see FIG. 11), mannitol concentration was 5 mM for the first three hours of experiment, it was then reduced to 3 mM for a subsequent period of one hour and then increased to 10 mM for a subsequent period of one hour.
(§2) During the first 3-hour period, the entire content of the cathode solution was withdrawn every 60 minutes and the chamber was refilled with fresh buffer.
During the second 1-hour period, the 5 mM mannitol donor solution was replaced with 3 mM mannitol, and the cathodal chamber was then sampled every 30 minutes.
During the third 1-hour period, the 3 mM mannitol donor solution was replaced with 10 mM mannitol, and the cathodal chamber was then sampled every 30 minutes.

[4] = In vitro reverse iontophoretic extraction of mannitol and sodium (Example 3, first experiment); details: pig, pH 7.4
Description: The anode was placed in the sub-dermal, “donor” chamber, which contained a physiological pH 7.4 buffer (25 mM Tris/TrisHCl+133 mM NaCl) to which the analyte mannitol was added.
In a first experiment, mannitol concentration was 5 mM for the first three hours of experiment and was then increased to 10 mM for a subsequent period of three hours.
(§3) To facilitate the analytical chemistry, the donor solutions were spiked with ^14C-labeled mannitol.
The cathodal (collection) chamber, which contacted the outer surface of the skin contained a 25 mM Tris/TrisHCl buffer at pH 7.4.
as §2
During the second 3-hour period, the 5 mM mannitol donor solution was replaced with 10 mM mannitol, and the cathodal chamber was then sampled every 30 minutes.

[5] = In vitro reverse iontophoretic extraction of mannitol and sodium with varied sodium level (Example 4); details: pig, pH 7.4
Description: The anode was placed in the sub-dermal, “donor” chamber, which contained a physiological pH 7.4 buffer (25 mM Tris/TrisHCl+4 mM KCl).
Both the concentration of the analyte of interest and the internal standard were modified during the experiment.
as §3, §1, §2
During the final 1-hour period, the donor solution was replaced with 5 mM mannitol/ 133 mM NaCl, and the cathodal chamber was then sampled every 30 minutes.

SMILES: [Li] [lithium]
(10^3×) Extracted (lithium/Na^+) flux ratio ([1]; (10^3×) subdermal [lithium]/[Na^+] ratio 3.4, 60 min): 0.71 ± 0.28 ×10^3
(10^3×) Extracted (lithium/Na^+) flux ratio ([1]; (10^3×) subdermal [lithium]/[Na^+] ratio 3.4, 120 min): 1.38 ± 0.19 ×10^3
(10^3×) Extracted (lithium/Na^+) flux ratio ([1]; (10^3×) subdermal [lithium]/[Na^+] ratio 3.4, 180 min): 1.54 ± 0.20 ×10^3
(10^3×) Extracted (lithium/Na^+) flux ratio ([1]; (10^3×) subdermal [lithium]/[Na^+] ratio 3.4, 240 min): 1.80 ± 0.03 ×10^3
(10^3×) Extracted (lithium/Na^+) flux ratio ([1]; (10^3×) subdermal [lithium]/[Na^+] ratio 3.4, 300 min): 1.62 ± 0.03 ×10^3
(10^3×) Extracted (lithium/Na^+) flux ratio ([1]; (10^3×) subdermal [lithium]/[Na^+] ratio 6.5, 60 min): 1.48 ± 0.41 ×10^3
(10^3×) Extracted (lithium/Na^+) flux ratio ([1]; (10^3×) subdermal [lithium]/[Na^+] ratio 6.5, 120 min): 2.65 ± 0.55 ×10^3
(10^3×) Extracted (lithium/Na^+) flux ratio ([1]; (10^3×) subdermal [lithium]/[Na^+] ratio 6.5, 180 min): 3.13 ± 0.78 ×10^3
(10^3×) Extracted (lithium/Na^+) flux ratio ([1]; (10^3×) subdermal [lithium]/[Na^+] ratio 6.5, 240 min): 2.79 ± 0.35 ×10^3
(10^3×) Extracted (lithium/Na^+) flux ratio ([1]; (10^3×) subdermal [lithium]/[Na^+] ratio 6.5, 300 min): 3.13 ± 0.51 ×10^3
(10^3×) Extracted (lithium/Na^+) flux ratio ([1]; (10^3×) subdermal [lithium]/[Na^+] ratio 10.3, 60 min): 2.28 ± 0.43 ×10^3
(10^3×) Extracted (lithium/Na^+) flux ratio ([1]; (10^3×) subdermal [lithium]/[Na^+] ratio 10.3, 120 min): 4.45 ± 0.64 ×10^3
(10^3×) Extracted (lithium/Na^+) flux ratio ([1]; (10^3×) subdermal [lithium]/[Na^+] ratio 10.3, 180 min): 5.25 ± 0.48 ×10^3
(10^3×) Extracted (lithium/Na^+) flux ratio ([1]; (10^3×) subdermal [lithium]/[Na^+] ratio 10.3, 240 min): 5.64 ± 0.52 ×10^3
(10^3×) Extracted (lithium/Na^+) flux ratio ([1]; (10^3×) subdermal [lithium]/[Na^+] ratio 10.3, 300 min): 5.45 ± 0.36 ×10^3
K′ (QLi/QNa=K′.[Li], slope of FIG. 25a) ([1]; pig, pH 7.4): 4.18×10^−3
K (QLi/QNa=K.[Li]/[Na], slope of FIG. 25b) ([1]; short (5-hour) period of iontophoresis at 0.5 mA/cm^2): 0.56

Extracted flux ratio (10^3×) relative to Na^+ ([2]; Experiment A: subdermal glucose 3 mM, mannitol 7 mM, 60 min): 2.01 ± 0.33 10^3×
Extracted flux ratio (10^3×) relative to Na^+ ([2]; Experiment A: subdermal glucose 3 mM, mannitol 7 mM, 120 min): 3.21 ± 0.21 10^3×
Extracted flux ratio (10^3×) relative to Na^+ ([2]; Experiment A: subdermal glucose 3 mM, mannitol 7 mM, 180 min): 3.64 ± 0.31 10^3×
Extracted flux ratio (10^3×) relative to Na^+ ([2]; Experiment A: subdermal glucose 3 mM, mannitol 7 mM, 240 min): 3.98 ± 0.24 10^3×
Extracted flux ratio (10^3×) relative to Na^+ ([2]; Experiment A: subdermal glucose 3 mM, mannitol 7 mM, 300 min): 4.29 ± 0.40 10^3×
Extracted flux ratio (10^3×) relative to Na^+ ([2]; Experiment A: subdermal glucose 3 mM, mannitol 7 mM, 360 min): 4.65 ± 0.26 10^3×
Extracted flux ratio (10^3×) relative to Na^+ ([2]; Experiment B: subdermal glucose 5 mM, mannitol 5 mM, 60 min): 1.29 ± 0.58 10^3×
Extracted flux ratio (10^3×) relative to Na^+ ([2]; Experiment B: subdermal glucose 5 mM, mannitol 5 mM, 120 min): 2.13 ± 0.47 10^3×
Extracted flux ratio (10^3×) relative to Na^+ ([2]; Experiment B: subdermal glucose 5 mM, mannitol 5 mM, 180 min): 2.53 ± 0.41 10^3×
Extracted flux ratio (10^3×) relative to Na^+ ([2]; Experiment B: subdermal glucose 5 mM, mannitol 5 mM, 240 min): 2.73 ± 0.38 10^3×
Extracted flux ratio (10^3×) relative to Na^+ ([2]; Experiment B: subdermal glucose 5 mM, mannitol 5 mM, 300 min): 2.98 ± 0.41 10^3×
Extracted flux ratio (10^3×) relative to Na^+ ([2]; Experiment B: subdermal glucose 5 mM, mannitol 5 mM, 360 min): 3.15 ± 0.30 10^3×
Extracted flux ratio (10^3×) relative to Na^+ ([2]; Experiment C: subdermal glucose 7 mM, mannitol 3 mM, 60 min): 0.86 ± 0.45 10^3×
Extracted flux ratio (10^3×) relative to Na^+ ([2]; Experiment C: subdermal glucose 7 mM, mannitol 3 mM, 120 min): 1.38 ± 0.46 10^3×
Extracted flux ratio (10^3×) relative to Na^+ ([2]; Experiment C: subdermal glucose 7 mM, mannitol 3 mM, 180 min): 1.62 ± 0.44 10^3×
Extracted flux ratio (10^3×) relative to Na^+ ([2]; Experiment C: subdermal glucose 7 mM, mannitol 3 mM, 240 min): 1.71 ± 0.39 10^3×
Extracted flux ratio (10^3×) relative to Na^+ ([2]; Experiment C: subdermal glucose 7 mM, mannitol 3 mM, 300 min): 1.83 ± 0.40 10^3×
Extracted flux ratio (10^3×) relative to Na^+ ([2]; Experiment C: subdermal glucose 7 mM, mannitol 3 mM, 360 min): 1.94 ± 0.36 10^3×
K (analyte/Na^+ extraction ratio vs sub-dermal concentration ratio, slope of FIG. 22b) ([2]; iontophoresis of 6 hours at 0.5 mA/cm^2): 0.078
K′ (analyte/Na^+ extraction ratio vs analyte sub-dermal concentration, slope of FIG. 22a) ([2]; iontophoresis of 6 hours at 0.5 mA/cm^2, Na^+ fixed 133 mM): 0.586×10^−3
K (Qmann/QNa^+=K.[mann]/[Na^+], slope of FIG. 15b) [3]: 0.07
Extracted (mannitol/Na^+) flux (×10^3) ratio ([3]; 60 min, 5 mM): 1.52 ± 0.4 ×10^3
Mannitol flux ([3]; 60 min, 5 mM): 13.5 ± 4.1 nmol · h^−1 · cm^−2
Extracted (mannitol/Na^+) flux (×10^3) ratio ([3]; 120 min, 5 mM): 2.5 ± 0.3 ×10^3
Mannitol flux ([3]; 120 min, 5 mM): 25.8 ± 4.8 nmol · h^−1 · cm^−2
Extracted (mannitol/Na^+) flux (×10^3) ratio ([3]; 180 min, 5 mM): 2.7 ± 0.3 ×10^3
Mannitol flux ([3]; 180 min, 5 mM): 27.8 ± 4.4 nmol · h^−1 · cm^−2
Extracted (mannitol/Na^+) flux (×10^3) ratio ([3]; 210 min, 3 mM): 1.5 ± 0.2 ×10^3
Mannitol flux ([3]; 210 min, 3 mM): 16.6 ± 3.2 nmol · h^−1 · cm^−2
Extracted (mannitol/Na^+) flux (×10^3) ratio ([3]; 240 min, 3 mM): 1.5 ± 0.5 ×10^3
Mannitol flux ([3]; 240 min, 3 mM): 14.1 ± 2.8 nmol · h^−1 · cm^−2
Extracted (mannitol/Na^+) flux (×10^3) ratio ([3]; 270 min, 10 mM): 5.2 ± 0.5 ×10^3
Mannitol flux ([3]; 270 min, 10 mM): 49.6 ± 8.4 nmol · h^−1 · cm^−2
Extracted (mannitol/Na^+) flux (×10^3) ratio ([3]; 300 min, 10 mM): 5.2 ± 0.7 ×10^3
Mannitol flux ([3]; 300 min, 10 mM): 48.1 ± 8.7 nmol · h^−1 · cm^−2
Extracted (mannitol/Na^+) flux (×10^3) ratio ([4]; 60 min, 5 mM): 1.7 ± 0.8 ×10^3
Mannitol flux ([4]; 60 min, 5 mM): 13.3 ± 7.6 nmol · h^−1 · cm^−2
Extracted (mannitol/Na^+) flux (×10^3) ratio ([4]; 120 min, 5 mM): 2.2 ± 0.3 ×10^3
Mannitol flux ([4]; 120 min, 5 mM): 21.0 ± 4.7 nmol · h^−1 · cm^−2
Extracted (mannitol/Na^+) flux (×10^3) ratio ([4]; 180 min, 5 mM): 2.5 ± 0.3 ×10^3
Mannitol flux ([4]; 180 min, 5 mM): 25.2 ± 4.3 nmol · h^−1 · cm^−2
Extracted (mannitol/Na^+) flux (×10^3) ratio ([4]; 210 min, 10 mM): 5.0 ± 0.2 ×10^3
Mannitol flux ([4]; 210 min, 10 mM): 52.2 ± 4.4 nmol · h^−1 · cm^−2
Extracted (mannitol/Na^+) flux (×10^3) ratio ([4]; 240 min, 10 mM): 5.1 ± 0.5 ×10^3
Mannitol flux ([4]; 240 min, 10 mM): 53.2 ± 7.7 nmol · h^−1 · cm^−2
Extracted (mannitol/Na^+) flux (×10^3) ratio ([4]; 270 min, 10 mM): 5.2 ± 0.5 ×10^3
Mannitol flux ([4]; 270 min, 10 mM): 54.1 ± 6.8 nmol · h^−1 · cm^−2
Extracted (mannitol/Na^+) flux (×10^3) ratio ([4]; 300 min, 10 mM): 5.5 ± 0.3 ×10^3
Mannitol flux ([4]; 300 min, 10 mM): 58.1 ± 4.5 nmol · h^−1 · cm^−2
Extracted (mannitol/Na^+) flux (×10^3) ratio ([4]; 330 min, 10 mM): 5.7 ± 0.4 ×10^3
Mannitol flux ([4]; 330 min, 10 mM): 60.9 ± 6.8 nmol · h^−1 · cm^−2
Extracted (mannitol/Na^+) flux (×10^3) ratio ([4]; 360 min, 10 mM): 6.0 ± 0.3 ×10^3
Mannitol flux ([4]; 360 min, 10 mM): 63.2 ± 6.2 nmol · h^−1 · cm^−2
Extracted (mannitol/Na^+) flux (×10^3) ratio ([5]; 60 min, 5 mM): 1.2 ± 0.2 ×10^3
Mannitol flux ([5]; 60 min, 5 mM): 9.7 ± 1.5 nmol · h^−1 · cm^−2
Extracted (mannitol/Na^+) flux (×10^3) ratio ([5]; 120 min, 5 mM): 2.1 ± 0.1 ×10^3
Mannitol flux ([5]; 120 min, 5 mM): 22.0 ± 1.6 nmol · h^−1 · cm^−2
Extracted (mannitol/Na^+) flux (×10^3) ratio ([5]; 180 min, 5 mM): 2.6 ± 0.1 ×10^3
Mannitol flux ([5]; 180 min, 5 mM): 28.8 ± 1.3 nmol · h^−1 · cm^−2
Extracted (mannitol/Na^+) flux (×10^3) ratio ([5]; 270 min, 3 mM): 1.6 ± 0.1 ×10^3
Mannitol flux ([5]; 270 min, 3 mM): 15.9 ± 0.7 nmol · h^−1 · cm^−2
Extracted (mannitol/Na^+) flux (×10^3) ratio ([5]; 300 min, 3 mM): 1.4 ± 0.1 ×10^3
Mannitol flux ([5]; 300 min, 3 mM): 15.3 ± 0.7 nmol · h^−1 · cm^−2
Extracted (mannitol/Na^+) flux (×10^3) ratio ([5]; 330 min, 5 mM): 2.7 ± 0.1 ×10^3
Mannitol flux ([5]; 330 min, 5 mM): 29.0 ± 0.8 nmol · h^−1 · cm^−2
Extracted (mannitol/Na^+) flux (×10^3) ratio ([5]; 360 min, 5 mM): 2.6 ± 0.1 ×10^3
Mannitol flux ([5]; 360 min, 5 mM): 29.3 ± 0.6 nmol · h^−1 · cm^−2
SMILES: OC[C@@H](O)[C@@H](O)[C@H](O)[C@H](O)CO [Mannitol, mannitol]
